According to patent US20070037238A1, “Composition for suppressing PQQGDH reaction inhibition” (Toyo Boseki Kabushiki Kaisha, priority 2005, published 2007):

Test system: PQQGDH
Assay: Measurement with glucose electrodes
Format: biochemical
Settings: 0.1 M potassium ferricyanide, D-glucose 5-40 mM, 25° C., +0.35 V
Method: 0.5 g of carbon graphite and 0.3 mL of fluid paraffin were ground well with a mortar and pestle to form a carbon paste. This carbon paste was spread on a platinum electrode, and 10 μL of PQQGDH solution (Toyo Boseki GLD-331, 2,000 U/mL) was placed thereon and air-dried for 30 minutes at room temperature. This electrode was covered with a semipermeable cellulose membrane (molecular weight cut-off 8.000), and the semipermeable membrane was fixed with an O-ring to prepare a glucose electrode. This glucose electrode was used after having been soaked for 30 minutes or more in the buffer used for measurement. […] After about 5 minutes when the response current was confirmed to have stabilized, a D-glucose solution was added and the rise in the response current was monitored. […] The theoretical values here are the response value at each concentration calculated based on measurement values at 5 mM, assuming that the D-glucose amount and measurement value are proportional, and these are given as straight lines in the figures. The response values were more linear when pimelic acid and succinic acid were added in comparison to the solution of phosphoric acid and glutaric acid alone, and the actual measured response values at glucose concentrations of 30 mM or more are particularly close to the corresponding theoretical values.

Structure (SMILES)	linearity of glucose electrode response values versus D-glucose concentration (1% succinic acid in 50 mM glutaric acid pH 7.0 (Buffer D vs Buffer C))	linearity of glucose electrode response values versus D-glucose concentration (1% pimelic acid in 50 mM potassium phosphate buffer pH 7.0 (Buffer B vs Buffer A))
O=C(O)CCC(=O)O [succinic acid]	more linear	–
O=C(O)CCCCCC(=O)O [pimelic acid]	–	more linear
